Measurements published in patent publication US20070038384A1, “Devices and assays for monitoring/measuring cellular dynamics to create subject profiles from primary cells” (priority 2003, published 2007).

How the values were obtained:
Assay type in all cases: cell-based
[1] = system: SVR (H-ras-overexpressing derivative of MS1); test: Farnesyl transferase inhibition, cell motility assay in SVR; conditions: SVR cells, FTI-277 10 mm, time zero and four hours, versus control
Procedure: (§1) Using standard protocols, MS1 (T antigen-immortalized endothelial cells, ATCC) and SVR (H-ras-overexpressing derivative of MS1, ATCC) were plated into macrowells at densities of 12×10^3 and 6×10^3 cells/cm^2, respectively, in DMEM/5% fetal bovine serum. Unattached cells were washed off after 1 hour, and the cells were replenished with fresh media. To the media was also added farnesyl transferase inhibitor (FTI-277, Calbiochem) to concentration of […]. Cells were cultured overnight under fresh media in an incubator at 37° C. and 5% CO2. At the start of experiment, the stencil/first layer was removed after first on the support to allow cell migration. At different time points (time zero and time four hours) images were taken and analyzed for effects of FTI-277 on cell motility. FIG. 21 contains the pictorial results of an assay showing farnesyl transferase inhibition in MS1 and SVR cells.

[2] = system: MS1 (T antigen-immortalized endothelial cells); test: Farnesyl transferase inhibition, cell motility assay in MS1; conditions: FTI-277 10 mm, time zero and four hours, versus control
Procedure: as §1

[3] = system: 769-P cells (renal carcinoma); test: Inhibition of cell motility of renal cells via MMP inhibition, 769-P; conditions: various concentrations
Procedure: (§2) Two renal cell lines were used to study the effect of matrix metalloproteinase (MMP) inhibition on cell motility. Standard protocols were used to plate 100 769-P cells (renal carcinoma, purchased from ATCC) and HK-2 (proximal tubule cells from human kidney, from ATCC) in qualitative cell migration assay plate.
(§3) After allowing the cells to attach and spread for 8 hours, the stencil and the first layer were removed and MMP inhibitor (GM6001, Calbiochem) was added at various concentrations.

[4] = system: HK-2 (proximal tubule cells from human kidney); test: Inhibition of cell motility of renal cells via MMP inhibition, HK-2; conditions: HK-2, various concentrations
Procedure: as §2, §3

[5] = system: Human microvasular endothelial cells from lung (HMVEC-L); test: Microtubule experiments, cell motility/patterning assay; conditions: circular micro-orifice, versus control; agents 10 mg/ml in Example 8
Procedure: Alternatively, the test agent can be added before the cells have grown to confluency, i.e. the test agent is added to the cells before being patterned through the micro-orifices 300. If the test agent has no effect on cell motility, the cells will spread and achieve the shape of the micro-orifice 300. In FIGS. 16 and 17, a micro-orifice 300 is circular in shape. In the left column of FIGS. 16 and 17 are the control panel, which illustrate the cells having grown to a confluent circular pattern.
A first layer 150 having multiple orifices was applied to a support 140. The orifices ([…]) were rendered inert to the adsorption of proteins and the adhesion of cells using the standard procedures described in earlier disclosures: silanes terminated with ethylene glycol groups were reacted covalently with the surface of the PDMS devices. The stencil was washed three times with PBS, and vacuum was applied for two minutes to remove air bubbles. Human microvasular endothelial cells from lung (HMVEC-L, Clonetics/Biowhittaker), were seeded into the macro-wells of the stencil at a density of 5×10^3 cells/cm2 into the dishes in growth medium (EGM, Clonetics/Biowhittaker), and washed with fresh medium after an initial attachment period of 30 minutes to one hour. After an overnight incubation in the membranes, cells were treated with the following microtubule-disrupting agents: nocodazole (10 mg/ml), colchicine (10 mg/ml), vinblastine (10 mg/ml), or paclitaxel (10 mg/ml). Control cells were left untreated. Two different experiments were then performed. In the first experiment, cells were treated with the compounds while maintained within the macro-wells of the stencil. After two hours of treatment, the cells were imaged, the stencil was peeled off, and the cells were fixed with cold methanol (−20° C.) for ten minutes and washed three times with PBS. Immunofluorescence staining was performed using a monoclonal antibody to alpha-tubulin (1:100 dilution, DM1a, Sigma), followed by a FITC-conjugated goat anti-mouse antibody (25 mg/ml, Rockland Immunochemicals) and DAPI (3 mg/ml, Sigma) to stain the nucleus. Stained cells were mounted under a glass coverslip with Fluoromount G (Southern Biotechnology Associates) and imaged in a Zeiss fluorescence microscope.
In the second experiment, the stencil was peeled at the time of compound addition. After two hours of treatment, one set of samples was fixed and stained as described above. Another set of samples was left in the treatment compound and imaged over time, to monitor cell motility. Images were taken at 0, 2, 4, 8, and 24 hours. Cell motility was determined by taking the average diameter of the micro-regions, using ImageProPlus imaging software.

NIH-3T3 fibroblast cells = test: Cell migration/motility assay, 3T3/TAXOL; conditions: 2 hours and 5 hours after removal of first layer, versus control cells
Excerpt: The cell migration/motility assay of the present invention allows one to study the effect of test agents and others both on cell motility and on cell shape. For example, cells may be patterned through micro-orifices, such as micro-orifices 300, of the first layer 150. The cells are allowed to attach to the support 140 and to grow to confluence. The walls of the micro-orifice 300 constrain the cell(s) and the cells take on the shape of the micro-orifice 300, e.g., circular. A test agent is applied through the micro-orifices 300 and is allowed to contact the cells. The first layer 150 is removed and the cells are observed. If the test agent affects cell movement, the cell will be “stuck” in place as it was patterned and may not change shape, i.e., it will remain circular if the patterning member had circular orifices. […] FIG. 15(b) is a graph of the effect of various concentrations of taxol on cell movement as performed by a cell migration/motility assay of the present invention.
Macro-wells orifices of a stencil engaged with a support were filled with PBS and a vacuum was applied for two minutes to remove air bubbles. NIH-3T3 fibroblast cells (prelabeled with green cell tracker, CMFDA, Molecular Probes) were collected in DMEM/10% bovine calf serum and plated in the macro-wells at a concentration of 2×10^4 cells/cm2. After one hour, unadhered cells were washed off with fresh medium. […]

endothelial cells = test: Cell motility assay using endothelial cells with agonists and antagonists (FIG. 25); conditions: FIG. 25A
Procedure: FIG. 25 depicts a particular cell motility assay using endothelial cells and agonists and antagonists of such cells. […] In FIG. 25B, the concentration of VEGF is fixed. An antibody to VEGF is added in various concentrations. […] When an inhibitor to the VEGF receptor is added, the cells migrate at a such slower rate as depicted in FIG. 25C. […] Normally enzyme inhibition screens involve proteins and their substrates and not cells. FIG. 25D depicts enzyme inhibition screens in a cell based context.

COC(=O)[C@H](CCSC)NC(=O)c1ccc(NC[C@@H](N)CS)cc1-c1ccccc1 [FTI-277]
cell migration away from original starting positions [1]: control cells are shown to have migrated further away from their original starting positions than the cells treated with FTI | cell migration away from original starting positions [2]: control cells are shown to have migrated further away from their original starting positions than the cells treated with FTI

CNC(=O)[C@H](Cc1c[nH]c2ccccc12)NC(=O)[C@@H](CC(=O)NO)CC(C)C [GM6001]
cell motility [3]: reduces cell motility | cell motility [4]: no effect

COc1cc2c(c(OC)c1OC)-c1ccc(OC)c(=O)cc1[C@@H](NC(C)=O)CC2 [colchicine]
cellular movement / achieving circular confluent pattern [5]: cellular movement arrested

COC(=O)Nc1nc2ccc(C(=O)c3cccs3)cc2[nH]1 [nocodazole]
cellular movement / achieving circular confluent pattern [5]: cellular movement arrested

CC(=O)O[C@H]1C(=O)[C@@]2(C)[C@H]([C@H](OC(=O)c3ccccc3)[C@]3(O)C[C@H](OC(=O)[C@H](O)[C@@H](NC(=O)c4ccccc4)c4ccccc4)C(C)=C1C3(C)C)[C@]1(OC(C)=O)CO[C@@H]1C[C@@H]2O [taxol, paclitaxel]
cell movement away from original pattern (NIH-3T3 fibroblast cells): retained their original circular pattern | cellular movement / achieving circular confluent pattern [5]: cellular movement arrested

CC[C@]1(O)C[C@@H]2CN(CCc3c([nH]c4ccccc34)[C@@](C(=O)OC)(c3cc4c(cc3OC)N(C)[C@H]3[C@@](O)(C(=O)OC)[C@H](OC(C)=O)[C@]5(CC)C=CCN6CC[C@]43[C@@H]65)C2)C1 [vinblastine]
cellular movement / achieving circular confluent pattern [5]: cellular movement arrested

VEGF
cell migration (endothelial cells): stimulates cells to migrate
